Assay results as given in ChEMBL document CHEMBL1201862, “PubChem BioAssay data set” (2004).
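48-hour exposure; five concentrations; linearly interpolated endpoints. Abbreviation: GI50, concentration required for 50% inhibition of growth.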 Calls of active or inactive are those of the source. No stated cut-off is given here; in the data, active = GI50 up to about 1.1 µM and inactive = higher.

Assays:
Experiment in all cases: DTP human tumour cell line panel, 48 h
NCI-H226 = test system: NCI-H226
RPMI-8226 = test system: RPMI-8226
K562 = test system: K562
OVCAR-8 = test system: OVCAR-8
UACC-62 = test system: UACC-62
SF-295 = test system: SF-295
NCI-H23 = test system: NCI-H23
PC-3 = test system: PC-3
LOX IMVI = test system: LOX IMVI
SW-620 = test system: SW-620
SK-MEL-28 = test system: SK-MEL-28
OVCAR-5 = test system: OVCAR-5
786-0 = test system: 786-0
MCF7 = test system: MCF7
SN12C = test system: SN12C
Malme-3M = test system: Malme-3M
SK-OV-3 = test system: SK-OV-3
IGROV-1 = test system: IGROV-1
RXF 393 = test system: RXF 393
A498 = test system: A498

Row | Structure (SMILES) | GI50 (NCI-H226) | GI50 (RPMI-8226) | GI50 (K562) | GI50 (OVCAR-8) | GI50 (UACC-62) | GI50 (SF-295) | GI50 (NCI-H23) | GI50 (PC-3) | GI50 (LOX IMVI) | GI50 (SW-620) | GI50 (SK-MEL-28) | GI50 (OVCAR-5) | GI50 (786-0) | GI50 (MCF7) | GI50 (SN12C) | GI50 (Malme-3M) | GI50 (SK-OV-3) | GI50 (IGROV-1) | GI50 (RXF 393) | GI50 (A498)
1 | CCCCCCSCC/C(C)=N\OC | > 100 µM (inactive) | > 100 µM (inactive) | > 100 µM (inactive) | > 100 µM (inactive) | > 100 µM (inactive) | > 100 µM (inactive) | > 100 µM (inactive) | > 100 µM (inactive) | > 100 µM (inactive) | > 100 µM (inactive) | > 100 µM (inactive) | > 100 µM (inactive) | > 100 µM (inactive) | > 100 µM (inactive) | > 100 µM (inactive) | > 100 µM (inactive) | > 100 µM (inactive) | > 100 µM (inactive) | > 100 µM (inactive) | > 100 µM (inactive)
2 | O=C(O)c1ccccc1-c1ccccc1C(=O)c1ccccc1 | > 100 µM (inactive) | > 100 µM (inactive) | > 100 µM (inactive) | > 100 µM (inactive) | > 100 µM (inactive) | > 100 µM (inactive) | > 100 µM (inactive) | > 100 µM (inactive) | > 100 µM (inactive) | > 100 µM (inactive) | > 100 µM (inactive) | > 100 µM (inactive) | > 100 µM (inactive) | > 100 µM (inactive) | > 100 µM (inactive) | > 100 µM (inactive) | > 100 µM (inactive) | > 100 µM (inactive) | > 100 µM (inactive) | > 100 µM (inactive)
3 | Cc1cccc(Nc2cc(Cl)nc(SCC(=O)O)n2)c1C [PIRINIXIC ACID] | > 100 µM (inactive) | 97.7 µM (inactive) | 87.5 µM (inactive) | > 100 µM (inactive) | > 100 µM (inactive) | > 100 µM (inactive) | > 100 µM (inactive) | > 100 µM (inactive) | > 100 µM (inactive) | > 100 µM (inactive) | > 100 µM (inactive) | > 100 µM (inactive) | > 100 µM (inactive) | > 100 µM (inactive) | > 100 µM (inactive) | > 100 µM (inactive) | > 100 µM (inactive) | > 100 µM (inactive) | > 100 µM (inactive) | > 100 µM (inactive)
4 | O=C1c2cccc3cccc(c23)C(=O)N1CCCNCCCCNCCCN1C(=O)c2cccc3cccc(c23)C1=O | 0.748 µM (active) | < 0.0205 µM (active) | 0.0226 µM (active) | 0.177 µM (active) | 0.337 µM (active) | 0.658 µM (active) | 0.0944 µM (active) | 0.17 µM (active) | 0.0229 µM (active) | 0.0612 µM (active) | 0.238 µM (active) | 0.316 µM (active) | 0.0311 µM (active) | < 0.0138 µM (active) | 0.104 µM (active) | 0.144 µM (active) | 0.982 µM (active) | 0.0697 µM (active) | 0.0933 µM (active) | 0.946 µM (active)
5 | CC(CCC#N)(CCC#N)C(=O)CC(O)(C(F)(F)F)C(F)(F)F | 19.8 µM (inactive) | 2.64 µM (inactive) | 1.36 µM (inactive) | 3.3 µM (inactive) | 6.19 µM (inactive) | 18.2 µM (inactive) | 5.43 µM (inactive) | 11.9 µM (inactive) | 2.07 µM (inactive) | 2.76 µM (inactive) | 11 µM (inactive) | 12.3 µM (inactive) | 2.12 µM (inactive) | 6.5 µM (inactive) | 7.24 µM (inactive) | 5.02 µM (inactive) | 47 µM (inactive) | 13.2 µM (inactive) | 2.07 µM (inactive) | 20.6 µM (inactive)
6 | CCC1=NC(N/N=C/c2ccco2)=N/C1=C\c1ccccc1O | 28.4 µM (inactive) | 31.9 µM (inactive) | 56.5 µM (inactive) | 25.4 µM (inactive) | 22.3 µM (inactive) | 44.2 µM (inactive) | 28.8 µM (inactive) | 31.2 µM (inactive) | 35 µM (inactive) | 63.4 µM (inactive) | 38.3 µM (inactive) | 78.7 µM (inactive) | 39.7 µM (inactive) | 17.9 µM (inactive) | > 100 µM (inactive) | 31 µM (inactive) | 47 µM (inactive) | 26.4 µM (inactive) | 82.4 µM (inactive) | 68.9 µM (inactive)
7 | CC(=O)NC1C(OC2C(CO)OC(OCC3OC(n4ccc(N)nc4=O)C(O)C3O)C(NC(C)=O)C2O)OC(CO)C(O)C1O (stereo not given) | > 100 µM (inactive) | > 100 µM (inactive) | > 100 µM (inactive) | > 91.2 µM (inactive) | > 100 µM (inactive) | > 100 µM (inactive) | 97.9 µM (inactive) | > 100 µM (inactive) | > 100 µM (inactive) | > 100 µM (inactive) | > 100 µM (inactive) | > 100 µM (inactive) | > 100 µM (inactive) | > 94.6 µM (inactive) | > 100 µM (inactive) | 5.97 µM (inactive) | > 100 µM (inactive) | > 100 µM (inactive) | > 100 µM (inactive) | > 100 µM (inactive)
